Legend:
[1] = Determination of the microsomal half-life / microsomal clearance, human; assay type: in vitro ADME; conditions: human liver microsomes, 0.5 μM test substance, 0.25 mg microsomal protein/ml, NADPH, 37° C.
Method: (§1) The metabolic stability of the compounds of the invention was determined in the following assay.
(§2) The test substances were incubated in a concentration of 0.5 μM as follows:
(§3) 0.5 μM test substance are preincubated together with liver microsomes from different species (from rat, human or other species) (0.25 mg of microsomal protein/ml) in 0.05 M potassium phosphate buffer of pH 7.4 in microtiter plates at 37° C. for 5 min. The reaction is started by adding NADPH (1 mg/mL). After 0, 5, 10, 15, 20 and 30 min, 50 μl aliquots are removed, and the reaction is immediately stopped and cooled with the same volume of acetonitrile. The samples are frozen until analyzed. The remaining concentration of undegraded test substance is determined by MSMS. The half-life (T½) is determined from the gradient of the signal of test substance/unit time plot, it being possible to calculate the half-life of the test substance, assuming first order kinetics, from the decrease in the concentration of the compound with time. The microsomal clearance (mCl) is calculated from mCl=ln 2/T½/(content of microsomal protein in mg/ml)×1000 [ml/min/mg] (modified from references: Di, The Society for Biomoleculur Screening, 2003, 453-462; Obach, DMD, 1999 vol 27. N 11, 1350-1359).

[2] = molecular target: T1, human dopamine D3 receptors (Homo sapiens, UniProt P35462); experiment: Receptor binding study, dopamine D3 receptor ([125I]-iodosulpride displacement); conditions: membranes of HEK-293 cells, 0.1 nM [125I]-iodosulpride, 25° C., 60 minutes
T1 construct: expressed in transfected cells; host or cells: HEK-293
T1 sequence (P35462 whole entry): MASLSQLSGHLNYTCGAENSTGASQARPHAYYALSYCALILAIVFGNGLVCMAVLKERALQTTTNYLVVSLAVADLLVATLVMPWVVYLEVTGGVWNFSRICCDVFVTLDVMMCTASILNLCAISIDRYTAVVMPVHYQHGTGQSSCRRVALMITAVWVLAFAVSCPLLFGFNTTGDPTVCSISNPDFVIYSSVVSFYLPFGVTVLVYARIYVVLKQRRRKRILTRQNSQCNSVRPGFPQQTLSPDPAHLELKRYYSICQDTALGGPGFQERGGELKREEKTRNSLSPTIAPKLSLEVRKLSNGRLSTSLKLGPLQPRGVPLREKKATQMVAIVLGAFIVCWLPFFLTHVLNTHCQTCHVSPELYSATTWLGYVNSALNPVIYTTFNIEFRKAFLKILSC
Method: (§4) The substance to be tested was either dissolved in methanol/Chremophor® (BASF SE) or in dimethyl sulfoxide and then diluted with water to the desired concentration.
(§5) Each assay mixture was run in triplicate. • The incubation buffer contained 50 mM tris, 120 mM NaCl, 5 mM KCl, 2 mM CaCl2, 2 mM MgCl2 and 0.1% bovine serum albumin, 10 μM quinolone and 0.1% ascorbic acid (prepared fresh daily). […] Each assay mixture was run in triplicate. • The incubation buffer contained 50 mM tris, 120 mM NaCl, 5 mM KCl, 2 mM CaCl2, 2 mM MgCl2 and 0.1% bovine serum albumin. The buffer was adjusted to pH 7.4 with HCl. c) Measurement and Analysis: • After having been incubated at 25° C. for 60 minutes, the assay mixtures were filtered through a Whatman GF/B glass fiber filter under vacuum using a cell collecting device. The filters were transferred to scintillation viols using a filter transfer system. After 4 ml of Ultima Gold® (Packard) have been added, the samples were shaken for one hour and the radioactivity was then counted in a Beta-Counter (Packard, Tricarb 2000 or 2200CA).

hERG cardiac K+ channel = molecular target: T2, hERG cardiac K+ channel (Homo sapiens, UniProt Q12809); experiment: Blocking the hERG channel ([3H]dofetilide displacement); assay type: binding; conditions: membrane homogenate from HEK 293 cells expressing hERG
T2 construct: expressed in transfected cells; host or cells: HEK-293
T2 sequence (Q12809 whole entry): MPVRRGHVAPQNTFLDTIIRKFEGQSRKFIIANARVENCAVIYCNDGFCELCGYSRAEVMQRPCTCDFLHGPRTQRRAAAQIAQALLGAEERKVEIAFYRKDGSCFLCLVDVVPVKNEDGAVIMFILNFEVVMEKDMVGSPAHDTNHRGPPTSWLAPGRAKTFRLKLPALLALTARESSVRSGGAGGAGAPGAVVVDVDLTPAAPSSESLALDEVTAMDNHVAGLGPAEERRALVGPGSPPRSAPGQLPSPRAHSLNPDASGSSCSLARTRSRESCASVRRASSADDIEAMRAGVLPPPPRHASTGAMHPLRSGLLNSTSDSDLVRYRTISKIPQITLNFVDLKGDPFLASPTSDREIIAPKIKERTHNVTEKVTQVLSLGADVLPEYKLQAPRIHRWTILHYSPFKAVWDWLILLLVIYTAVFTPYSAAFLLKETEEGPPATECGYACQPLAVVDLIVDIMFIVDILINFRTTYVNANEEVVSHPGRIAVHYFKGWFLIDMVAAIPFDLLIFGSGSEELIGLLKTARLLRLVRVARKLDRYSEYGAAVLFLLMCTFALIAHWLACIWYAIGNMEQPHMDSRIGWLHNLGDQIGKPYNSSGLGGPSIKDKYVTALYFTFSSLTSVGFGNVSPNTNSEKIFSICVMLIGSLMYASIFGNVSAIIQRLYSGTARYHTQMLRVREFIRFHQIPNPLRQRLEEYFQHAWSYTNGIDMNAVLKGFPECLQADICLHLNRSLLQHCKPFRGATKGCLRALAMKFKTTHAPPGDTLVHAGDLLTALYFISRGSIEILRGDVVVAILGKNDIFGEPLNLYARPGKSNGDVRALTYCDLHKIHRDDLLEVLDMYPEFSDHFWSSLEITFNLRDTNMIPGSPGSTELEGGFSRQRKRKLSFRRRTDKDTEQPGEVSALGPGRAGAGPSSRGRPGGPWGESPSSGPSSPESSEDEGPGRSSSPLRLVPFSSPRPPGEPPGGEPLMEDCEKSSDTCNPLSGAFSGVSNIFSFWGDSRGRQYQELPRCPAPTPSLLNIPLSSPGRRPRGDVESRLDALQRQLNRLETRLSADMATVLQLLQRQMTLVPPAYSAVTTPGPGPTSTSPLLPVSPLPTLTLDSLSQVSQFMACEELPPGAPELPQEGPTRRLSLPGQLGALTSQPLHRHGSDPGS
Method: The binding affinity of test drugs for the hERG cardiac K^+ channel was determined by their ability to displace tritiated dofetilide (a class III antiarrhythmic drug and potent hERG blocker) in membrane homogenates from HEK-293 cells heterogeneously expressing the hERG channel. The assay was performed as previously described G. J. Diaz et al., Journal of Pharmacological and Toxicological Methods, 50 (2004), 187-199). For this, drug dilutions were prepared from 10 mM DMSO stocks and the following were added to a 96-well polystyrene plate (Perkin-Elmer Optiplate): 20 μl of assay binding buffer (for total bounds), or 1 μM astemizole (for non-specific bounds), or test drug, 50 μl of [^3H]dofetilide (20 nM, ˜80 Ci/mmol specific activity), and 130 μl of membrane homogenate from HEK 293 cells stably transfected with hERG K^+ channels (final protein concentration of 30 μg per well). The plates were incubated at ambient temperature for 45 min, aspirated onto GF/B filter plates (Perkin-Elmer), and washed with 2 ml of cold wash buffer. After allowing the plates to dry, 50 μl of scintillant (Perkin-Elmer MicroScint 20) were added to each well and the radioactivity was counted in a Perkin-Elmer Topcount NXT scintillation counter. IC50 determinations were calculated from competition curves using 6 drug concentrations, half-log apart, starting at a high concentration of 100 μM (final assay DMSO concentration=1%) using a four-parameter logistic equation. The results are given as IC50 value.

[3] = molecular target: T3, human dopamine D2L receptors (long isoform) (Homo sapiens, UniProt P14416); experiment: Receptor binding study, dopamine D2L receptor ([125I]iodospiperone displacement), selectivity vs D3; conditions: selectivity ratio, HEK-293 membranes
T3 construct: expressed in transfected cells; host or cells: HEK-293
T3 sequence (P14416 whole entry, canonical isoform): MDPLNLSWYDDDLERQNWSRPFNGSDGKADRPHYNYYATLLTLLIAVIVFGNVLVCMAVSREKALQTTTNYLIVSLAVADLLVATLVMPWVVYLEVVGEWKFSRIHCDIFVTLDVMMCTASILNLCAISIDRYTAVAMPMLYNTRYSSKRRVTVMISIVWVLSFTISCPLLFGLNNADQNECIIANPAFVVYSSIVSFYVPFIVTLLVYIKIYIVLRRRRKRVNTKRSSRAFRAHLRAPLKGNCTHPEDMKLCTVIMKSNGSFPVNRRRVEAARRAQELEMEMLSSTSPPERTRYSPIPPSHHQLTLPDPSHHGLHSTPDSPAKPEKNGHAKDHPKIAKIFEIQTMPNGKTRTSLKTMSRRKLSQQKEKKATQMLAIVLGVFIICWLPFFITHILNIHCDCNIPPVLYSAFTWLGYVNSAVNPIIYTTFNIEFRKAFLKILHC
Method: as §4, §5

[4] = Determination of the microsomal half-life / microsomal clearance, rat; assay type: in vitro ADME; conditions: rat liver microsomes, 0.5 μM test substance, 0.25 mg microsomal protein/ml, NADPH, 37° C.
Method: as §1, §2, §3

COCCc1cc(N2CCN(CC[C@H]3CC[C@@H](NC(C)=O)CC3)[C@@H](C)C2)nc(C(C)(C)C)n1 [Compound 7, cis-N-[4-(2-{(2S)-4-[2-tert-Butyl-6-(2-methoxy-ethyl)-pyrimidin-4-yl]-2-methyl-piperazin-1-yl}-ethyl)-cyclohexyl]-acetamide]
Human mCl [1]: + (+: 20-120 μl min^−1 mg^−1) | Ki [2]: < 0.01 µM | IC50 (hERG cardiac K+ channel): > 10 µM | D2/D3 (Ki (D2L)/Ki (D3)) [3]: +++ (+++>50) | Rat mCl [4]: + (+: 20-120 μl min^−1 mg^−1)

— patent publication US9376396B2, “Acylaminocycloalkyl compounds suitable for treating disorders that respond to modulation of dopamine D3 receptor” (AbbVie Deutschland GmbH & Co. KG, priority 2012, dated 2016)
